Marks after values point to notes of the source that are not given here.
Assays:
[1] = test system: interleukin-6 (IL-6) secretion; assay: IL-6 secretion induced by PMA in keratinocytes (ELISA); type: cell-based, human; conditions: for IL-6: keratinocytes
Method: (§1) Normal human keratinocytes were preincubated for 24 hours with Schisandra peptides at concentrations of 0.005% and 0.05% or with 10^-7 M dexamethasone (anti-inflammatory reference molecule).
(§2) Inflammation was then induced by treatment with 10 μg/ml PMA for 24 hours, always in the presence of Schisandra peptides or dexamethasone.
(§3) At the end of incubation, the quantities of interleukin-1β (IL-1β), interleukin-8 (IL-8) and interleukin-6 (IL-6) present in the culture supernatants were measured by ELISA.
(§4) In parallel, the number of biologically active cells is determined by a neutral red test. The quantity of cytokine assayed for each condition is reduced to the number of living cells by dividing by the OD540 value obtained at the end of the neutral red test.

[2] = test system: interleukin-8 (IL-8) secretion; assay: IL-8 secretion induced by PMA in keratinocytes (ELISA); type: cell-based, human
Method: as §1, §2, §3, §4

[3] = test system: interleukin-1β (IL-1β) secretion; assay: IL-1β secretion induced by PMA in keratinocytes (ELISA); type: cell-based, human
Method: as §1, §2, §3, §4

VEGF secretion = assay: VEGF protein release induced by PMA in keratinocytes (ELISA); type: cell-based, human
Method: Normal human keratinocytes were preincubated for 24 hours with Schisandra peptides at concentrations of 0.005%, 0.05% and 0.1% or with 10^-7 M dexamethasone (anti-inflammatory reference molecule).
as §2
At the end of incubation, the quantity of VEGF present in the culture supernatants was measured by ELISA.
as §4
The significance of the results was verified by a single-factor analysis of variance followed by a Tukey's test (GraphPad Prism version 5.02 software, GraphPad Software, San Diego, Calif., USA).

[4] = test system: cathelicidin (LL37) gene expression; assay: LL37 gene expression induced by calcitriol in keratinocytes (real-time RT-PCR); type: cell-based, human; conditions: NHEK, 24 hours
Method: (§5) In order to evaluate the potential activity of Schisandra peptides in the inflammatory phase of rosacea, we studied the effect of this complex of active agents on kallikrein 5 (KLK5) and cathelicidin (LL37) gene expression induced by a vitamin D analogue (calcitriol) in keratinocytes.
(§6) Normal human epidermal keratinocytes (NHEK) were cultivated in culture medium supplemented with Ca++ in order to bring them to a state of differentiation.
(§7) The keratinocytes were treated for 24 hours with 0.05% (w/v) Schisandra peptides in the presence or absence of 10^-7 M calcitriol (vitamin D analogue).
(§8) At the end of the treatment, the culture supernatants were eliminated and total RNA extracted using an extraction kit (RNeasy Mini Kit, Qiagen). Total RNA were then assayed in chips using the Experion™ system and the Experion RNA StdSens kit (Bio-Rad) and then reverse-transcribed into cDNA using the iScript cDNA Synthesis kit (Bio-Rad).
(§9) The neo-synthesized cDNA relating to the genes of interest (KLK5 and LL37) or to the reference genes were amplified selectively by real-time PCR on an iQ5 system (Bio-Rad) using SybrGreen technology (iQ SybrGreen kit, Bio-Rad).
(§10) The real-time RT-PCR method enables the relative quantification of the expression level of a gene of interest in relation to that of a reference gene in response to a given treatment.
(§11) The quantitative analysis of the results is based on the collection of threshold cycles.
(§12) The threshold cycle is […] correlated with the initial number of copies of target DNA.
(§13) ΔCt is thus calculated as follows: ΔCt=Cttarget gene−Ctreference gene
(§14) In a second step, the variation, as a function of the treatment and the number of copies of the gene of interest, was determined. ΔΔCt is thus calculated as follows: ΔΔCt=ΔCtcontrol−ΔCttreated
(§15) Lastly, relative quantity (RQ) is calculated: RQ=(1+E)ΔΔCt.
(§16) E (efficiency) is considered equal to 1, and thus: RQ=2ΔΔCt
(§17) The significance of the results was verified for the ΔCt values by a single-factor analysis of variance followed by a Tukey's test (GraphPad Prism version 5.02 software, GraphPad Software, San Diego, Calif., USA).

[5] = test system: kallikrein 5 (KLK5) gene expression; assay: KLK5 gene expression induced by calcitriol in keratinocytes (real-time RT-PCR); type: cell-based, human; conditions: NHEK, 24 hours
Method: as §5, §6, §7, §8, §9, §10, §11, §12, §13, §14, §15, §16, §17

[6] = test system: Normal human dermal microvascular endothelial cells; assay: Endothelial cell proliferation in the absence or presence of VEGF (intracellular phosphatase activity); type: cell-based; conditions: 10 ng/ml VEGF
Method: Normal human dermal microvascular endothelial cells were incubated for 24 or 48 hours in the absence (control) or presence of Schisandra peptides at concentrations of 0.05% and 0.1% and in the presence and absence of 10 ng/ml vascular endothelial growth factor (VEGF), the reference activator.
At the end of incubation, cell viability was evaluated by a spectrophotometric assay of intracellular phosphatase activity.
Statistical significance was evaluated by a single-factor analysis of variance followed by a Holm-Sidak test.

endothelin production = assay: Endothelin production by dermal microvascular endothelial cells (ELISA); type: cell-based, human; conditions: 6 hours, 16.7 nM insulin
Method: Endothelin is a neuropeptide with powerful vasoconstrictive activity. It is secreted by endothelial and epithelial cells (keratinocytes), fibroblasts, adipocytes and macrophages. The effect of Schisandra peptides on endothelin production by endothelial cells was studied.
Normal adult human dermal microvascular endothelial cells cultivated in a monolayer were incubated for 6 hours in the absence (control) or the presence of 0.05% and 0.1% Schisandra peptides or 16.7 nM insulin (reference activator).
At the end of the incubation period, secreted endothelin was quantified by ELISA. In parallel, the proteins contained in the cellular lysates were quantified by the Bradford method.
The quantity of endothelin assayed was thus normalized with the quantity of total proteins, and the results were then expressed as the ratio of endothelin (ng) to total protein (μg) in the layer of cells.
The statistical significance of the results was evaluated by a single-factor analysis of variance followed by a Holm-Sidak test.

[7] = 10 μg/ml PMA 24 hours alone (stimulated control)
[8] = 10^-7 M calcitriol alone (stimulated control)
[9] = 10^-7 M calcitriol alone (stimulated control), control cells = 1
[10] = 10−7 M dexamethasone 24 h preincubation + PMA 24 h

CCCCCCCCCCCCCC(=O)O[C@@H]1[C@@H](C)[C@@]2(O)[C@@H](C=C(CO)C[C@]3(O)C(=O)C(C)=C[C@@H]23)[C@@H]2C(C)(C)[C@]12OC(C)=O [PMA]
IL-6 [1, 7]: 0.098 ± 0.002 ODELISA/ODneutral red | IL-8 [2, 7]: 2.056 ± 0.166 pg/ml/ODneutral red | IL-1β [3, 7]: 0.106 ± 0.008 ODELISA-ODneutral red | VEGF (VEGF secretion; [7]): 3333.861 ± 111.766 pg/ml/ODneutral red

C=C1/C(=C\C=C2/CCC[C@]3(C)[C@@H]([C@H](C)CCCC(C)(C)O)CC[C@@H]23)C[C@@H](O)C[C@@H]1O [calcitriol]
Stimulation of LL37 gene expression vs. control cells ([4]; 10^-7 M calcitriol): +795% | Mean ΔCt (CtLL37 − CtGAPDH) [4, 8]: 11.01 | ΔΔCt (LL37) [4, 8]: 3.16 | LL37 expression (RQ) [4, 9]: 8.95$$$ | Stimulation of kallikrein 5 gene expression vs. control cells ([5]; 10^-7 M calcitriol): +149% | Mean ΔCt (CtKLK5 − CtGAPDH) [5, 8]: 2.46 | ΔΔCt (KLK5) [5, 8]: 1.32 | KLK5 expression (RQ) [5, 9]: 2.49$$

C[C@@H]1C[C@H]2[C@@H]3CCC4=CC(=O)C=C[C@]4(C)[C@@]3(F)[C@@H](O)C[C@]2(C)[C@@]1(O)C(=O)CO [dexamethasone]
IL-6 release, change vs. stimulated control (PMA) ([1]; 10−7 M dexamethasone): −56%*** | IL-6 [1, 10]: 0.043 ± 0.012 ODELISA/ODneutral red | IL-8 [2, 10]: 0.973 ± 0.213 pg/ml/ODneutral red | IL-1β [3, 10]: 0.037 ± 0.011 ODELISA-ODneutral red | VEGF (VEGF secretion; 10^−7 M dexamethasone 24 h preincubation + PMA 24 h): 1789.338 ± 489.677 pg/ml/ODneutral red

VEGF
Endothelial cell growth, stimulation in relation to control cells ([6]; 24 hours): +41.4% | Endothelial cell growth, stimulation in relation to control cells ([6]; 48 hours): +96.3%

insulin: reference activator of endothelin production
Endothelin production, change vs. control cells (endothelin production): +30% | Endothelin (endothelin production; endothelial cells): 1.72 ± 0.23 ng/μg of proteins

From patent publication US8586107B2, “Schisandra sphenanthera fruit extract and cosmetic, dermatological, and nutraceutical compositions comprising same” (Laboratoires Expanscience, priority 2009, dated 2013)
